ChEMBL document CHEMBL1146661, “The effect of 6-substituted-4',4"-difluorobenztropines on monoamine transporters and the muscarinic M1 receptor” (Bioorg Med Chem Lett, 2004)

Experiments:
Rattus norvegicus = species: Rattus norvegicus; experiment: Relative affinity for dopamine transporter and muscarinic acetylcholine M1 receptor
[1] = molecular target: Norepinephrine transporter (Rattus norvegicus, UniProt Q9WTR4); experiment: Displacement of [3H]-[…] from norepinephrine transporter of rat brain membrane; type: tissue-based
[2] = molecular target: Sodium-dependent dopamine transporter (Rattus norvegicus, UniProt P23977); experiment: Displacement of [3H]WIN-35428 from dopamine transporter of rat brain membrane; type: tissue-based
[3] = molecular target: Monoamine transporters; Norepininephrine & dopamine (Rattus norvegicus) (UniProt P23977+Q9WTR4); experiment: Relative affinity for dopamine and norepinephrine transporters; type: protein assay
[4] = molecular target: T1, Sodium-dependent serotonin transporter (Rattus norvegicus, UniProt P31652); experiment: Displacement of [3H]citalopram from serotonin transporter of rat brain membrane; type: tissue-based
[5] = molecular target: T2, Muscarinic acetylcholine receptor M1 (Rattus norvegicus, UniProt P08482); experiment: Displacement of [3H]pirenzepine from muscarinic acetylcholine receptor M1 of rat brain membrane
T2 sequence (P08482 whole entry): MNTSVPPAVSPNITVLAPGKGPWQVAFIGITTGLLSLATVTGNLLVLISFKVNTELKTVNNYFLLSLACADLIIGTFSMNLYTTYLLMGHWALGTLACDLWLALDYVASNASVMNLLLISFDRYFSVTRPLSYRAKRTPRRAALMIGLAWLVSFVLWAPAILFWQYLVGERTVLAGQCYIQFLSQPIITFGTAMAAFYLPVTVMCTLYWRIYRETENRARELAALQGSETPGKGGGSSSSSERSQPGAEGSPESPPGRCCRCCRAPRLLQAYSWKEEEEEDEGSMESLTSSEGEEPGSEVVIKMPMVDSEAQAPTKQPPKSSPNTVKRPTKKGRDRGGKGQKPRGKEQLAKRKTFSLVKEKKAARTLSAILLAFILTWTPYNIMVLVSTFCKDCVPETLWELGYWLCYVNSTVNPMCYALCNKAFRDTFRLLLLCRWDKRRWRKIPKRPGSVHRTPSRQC

[6] = molecular target: Monoamine transporters; serotonin & dopamine (Rattus norvegicus) (UniProt P31652+P23977); experiment: Relative affinity for dopamine and serotonin transporters; type: protein assay
[7] = molecular target: T1, Sodium-dependent serotonin transporter; experiment: Displacement of [3H]-citalopram from serotonin transporter of rat brain membrane; type: tissue-based

Sequence of Sodium-dependent dopamine transporter (P23977 whole entry): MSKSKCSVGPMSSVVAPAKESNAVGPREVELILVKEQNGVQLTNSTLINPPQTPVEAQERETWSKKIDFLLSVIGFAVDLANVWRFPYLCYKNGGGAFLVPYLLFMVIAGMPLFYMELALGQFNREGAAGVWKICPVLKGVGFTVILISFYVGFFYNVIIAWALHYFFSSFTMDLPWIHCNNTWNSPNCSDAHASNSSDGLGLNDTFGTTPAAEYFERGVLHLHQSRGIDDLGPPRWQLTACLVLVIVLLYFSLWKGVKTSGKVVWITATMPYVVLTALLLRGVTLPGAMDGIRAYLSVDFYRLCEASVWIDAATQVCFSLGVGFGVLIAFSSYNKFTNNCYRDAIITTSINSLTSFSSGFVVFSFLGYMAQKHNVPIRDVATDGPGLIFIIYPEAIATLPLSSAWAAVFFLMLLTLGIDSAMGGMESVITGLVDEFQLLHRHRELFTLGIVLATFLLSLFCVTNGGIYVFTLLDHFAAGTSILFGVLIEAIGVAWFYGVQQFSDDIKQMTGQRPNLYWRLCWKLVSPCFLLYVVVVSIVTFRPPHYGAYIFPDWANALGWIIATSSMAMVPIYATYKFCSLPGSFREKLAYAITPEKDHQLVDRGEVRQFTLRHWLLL
Sequence of Monoamine transporters; serotonin & dopamine (Rattus norvegicus) (P23977 whole entry, looked up): as the sequence (P23977 whole entry) above
Sequence of Monoamine transporters; serotonin & dopamine (Rattus norvegicus) (P31652 whole entry, looked up): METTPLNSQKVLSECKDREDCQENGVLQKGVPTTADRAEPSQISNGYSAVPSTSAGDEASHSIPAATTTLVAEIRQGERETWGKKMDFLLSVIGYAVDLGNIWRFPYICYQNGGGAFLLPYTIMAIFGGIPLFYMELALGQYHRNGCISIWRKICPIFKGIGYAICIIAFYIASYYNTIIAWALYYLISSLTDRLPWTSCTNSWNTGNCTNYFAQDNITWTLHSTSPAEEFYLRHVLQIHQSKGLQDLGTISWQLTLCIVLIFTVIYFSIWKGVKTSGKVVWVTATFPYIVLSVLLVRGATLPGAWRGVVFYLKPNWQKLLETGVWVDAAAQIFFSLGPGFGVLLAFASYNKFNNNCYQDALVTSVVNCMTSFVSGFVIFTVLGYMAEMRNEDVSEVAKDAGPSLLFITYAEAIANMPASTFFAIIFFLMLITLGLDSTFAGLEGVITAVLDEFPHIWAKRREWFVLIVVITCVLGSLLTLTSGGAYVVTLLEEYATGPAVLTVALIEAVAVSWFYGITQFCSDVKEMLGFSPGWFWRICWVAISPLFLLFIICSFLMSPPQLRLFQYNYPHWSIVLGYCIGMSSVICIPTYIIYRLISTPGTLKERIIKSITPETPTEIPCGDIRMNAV
Sequence of Norepinephrine transporter (Q9WTR4 whole entry): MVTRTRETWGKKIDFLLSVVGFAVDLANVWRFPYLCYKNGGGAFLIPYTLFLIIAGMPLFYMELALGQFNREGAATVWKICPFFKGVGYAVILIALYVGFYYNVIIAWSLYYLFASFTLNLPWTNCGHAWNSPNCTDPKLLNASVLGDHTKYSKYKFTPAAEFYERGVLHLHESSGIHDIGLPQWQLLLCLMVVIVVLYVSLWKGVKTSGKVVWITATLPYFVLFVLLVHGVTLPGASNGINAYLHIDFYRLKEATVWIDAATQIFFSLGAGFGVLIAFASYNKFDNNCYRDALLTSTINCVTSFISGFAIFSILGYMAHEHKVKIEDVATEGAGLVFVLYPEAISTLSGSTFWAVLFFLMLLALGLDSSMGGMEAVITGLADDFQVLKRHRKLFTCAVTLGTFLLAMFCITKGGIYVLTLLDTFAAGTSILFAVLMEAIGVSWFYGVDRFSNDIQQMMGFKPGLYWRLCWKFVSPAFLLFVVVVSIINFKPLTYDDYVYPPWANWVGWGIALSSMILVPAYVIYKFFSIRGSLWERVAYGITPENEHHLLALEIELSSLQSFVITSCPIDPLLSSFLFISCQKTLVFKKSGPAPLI
T1 sequence (P31652 whole entry): as the sequence (P31652 whole entry, looked up) above

In the case of `CN1C2CC(OC(c3ccc(F)cc3)c3ccc(F)cc3)CC1[C@@H](O)C2` (stereo partly specified), the Selectivity (Rattus norvegicus) is reported as 8, the Ki [1] is reported as 1300 nM and the Ki [2] is reported as 6.28 nM. It also gave a Selectivity [3] of 207, a Ki [4] of 9090 nM and a Ki [5] of 48.3 nM. The Selectivity [6] was 1450.
For `COC(=O)[C@@H]1C2CC[C@@H](C[C@@H]1OC(=O)c1ccccc1)N2C` (single isomer, unassigned) [COCAINE], the Ki [5] was 61400 nM.
In the case of `CN1C2CC(OC(c3ccc(F)cc3)c3ccc(F)cc3)CC1[C@@H](C(=O)O)C2` (stereo partly specified), the Selectivity (Rattus norvegicus) is reported as 8, the Ki [1] is reported as 1380 nM and the Ki [2] is reported as 5.81 nM. For the same compound, the Selectivity [3] was 238, the Ki [7] was 8290 nM and the Ki [5] was 46.8 nM. The Selectivity [6] was 1430.
`CN1C2C[C@H](OC(c3ccc(F)cc3)c3ccc(F)cc3)CC1[C@@H](C(=O)OCCc1ccccc1)C2` (stereo partly specified) showed a Selectivity (Rattus norvegicus) of 20, a Ki [1] of 5690 nM and a Ki [2] of 171 nM. The Selectivity [3] was 33, the Ki [7] was 7960 nM and the Ki [5] was 3480 nM. For the same compound, the Selectivity [6] was 47.
For `COC(=O)[C@H]1CC2C[C@H](OC(c3ccc(F)cc3)c3ccc(F)cc3)CC1N2C` (stereo partly specified), the Selectivity (Rattus norvegicus) was 8, the Ki [1] was 6910 nM and the Ki [2] was 57.1 nM. For the same compound, the Selectivity [3] was 121, the Ki [7] was 16500 nM and the Ki [5] was 432 nM. The Selectivity [6] was 289.
`CC(C)COC(=O)[C@H]1CC2C[C@H](OC(c3ccc(F)cc3)c3ccc(F)cc3)CC1N2C` (stereo partly specified) showed a Selectivity (Rattus norvegicus) of 5, a Ki [1] of 6610 nM and a Ki [2] of 148 nM. It also gave a Selectivity [3] of 45, a Ki [7] of 7960 nM and a Ki [5] of 723 nM. The Selectivity [6] was 54.
Work on `CN1C2CC(OC(c3ccc(F)cc3)c3ccc(F)cc3)CC1[C@H](O)C2` (stereo partly specified) yielded a Selectivity (Rattus norvegicus) of 1, a Ki [1] of 6390 nM and a Ki [2] of 31.3 nM. The Selectivity [3] was 204, the Ki [7] was 11700 nM and the Ki [5] was 27 nM. It also gave a Selectivity [6] of 374.
Compound `CCOC(=O)[C@H]1CC2C[C@H](OC(c3ccc(F)cc3)c3ccc(F)cc3)CC1N2C` (stereo partly specified) has a Selectivity (Rattus norvegicus) of 2, a Ki [1] of 3720 nM and a Ki [2] of 75.4 nM. It also gave a Selectivity [3] of 49, a Ki [7] of 14000 nM and a Ki [5] of 142 nM. It also gave a Selectivity [6] of 186.
With `CN1C2C[C@H](OC(c3ccc(F)cc3)c3ccc(F)cc3)CC1[C@@H](C(=O)OCc1ccccc1)C2` (stereo partly specified) the Selectivity (Rattus norvegicus) was 19, the Ki [1] was 6210 nM and the Ki [2] was 119 nM. For the same compound, the Selectivity [3] was 52, the Ki [7] was 5850 nM and the Ki [5] was 2270 nM. It also gave a Selectivity [6] of 49.
For `CC(C)OC(=O)[C@H]1CC2C[C@H](OC(c3ccc(F)cc3)c3ccc(F)cc3)CC1N2C` (stereo partly specified), the Selectivity (Rattus norvegicus) was 5, the Ki [1] was 10200 nM and the Ki [2] was 151 nM. It also gave a Selectivity [3] of 68, a Ki [7] of 14800 nM and a Ki [5] of 784 nM. It also gave a Selectivity [6] of 98.
`CN1C2C[C@H](OC(c3ccc(F)cc3)c3ccc(F)cc3)CC1[C@@H](C(=O)Oc1ccccc1)C2` (stereo partly specified) was tested, and the Selectivity (Rattus norvegicus) was 5, the Ki [1] was 1370 nM and the Ki [2] was 107 nM. For the same compound, the Selectivity [3] was 13, the Ki [7] was 3730 nM and the Ki [5] was 552 nM. For the same compound, the Selectivity [6] was 35.
`CN1C2CCC1CC(OC(c1ccc(F)cc1)c1ccc(F)cc1)C2` (stereo unspecified) [DIFLUOROBENZTROPINE] showed a Ki [1] of 844 nM.
`O=C(Oc1ccccc1)[C@H]1CC2C[C@H](OC(c3ccc(F)cc3)c3ccc(F)cc3)CC1N2` (stereo partly specified) gave a Selectivity (Rattus norvegicus) of 48, a Ki [1] of 3170 nM and a Ki [2] of 175 nM. The Selectivity [3] was 18, the Ki [7] was 4440 nM and the Ki [5] was 8430 nM. The Selectivity [6] was 25.
Compound `COS(=O)(=O)[C@H]1CC2C[C@H](OC(c3ccc(F)cc3)c3ccc(F)cc3)CC1N2C` (stereo partly specified) has a Selectivity (Rattus norvegicus) of 8, a Ki [1] of 6880 nM and a Ki [2] of 81 nM. The Selectivity [3] was 85, the Ki [7] was 13800 nM and the Ki [5] was 617 nM. It also gave a Selectivity [6] of 170.
